# Data from patent publication US4847302A, “Use of certain compounds in livestock food as growth promotants for better feed utilization and improved carcass composition” (Merck & Co., Inc., priority 1988, dated 1989).
# Where two headings read alike, the source gives them in different places.
# What was measured:
# [1] = Growth, feed conversion and carcass composition of broilers raised in floor pens for 7 weeks; format: in vivo; conditions: 7 weeks
# Protocol: Compound V (bitolterol) was compared to clenbuterol for effects on growth, feed conversion and carcass composition of broilers raised in floor pens for 7 weeks. […] Bitolterol at the highest dose improved rate of gain 2.6% (P 0.01), feed conversion 3.8% (P 0.05) and carcass protein 4.9% (P 0.10).
# Clenbuterol at 0.5 ppm in the diet was administered for 7 weeks to one group and only during the last 4 weeks to another group. […] Clenbuterol given for 7 weeks improved feed conversion 3.5% (P 0.05) and appeared to improve (not significant) rate of gain 0.4%, carcass weight 0.7% and carcass protein 4.0% and to decrease (not significant) carcass fat 7.1%.
# [2] = tested on: Isolated Ovine Adipocytes; test: Stimulation of lipolysis (glycerol production) in isolated ovine adipocytes; format: cell-based, sheep; conditions: for activation at 0.05 µM / activation at 0.01 µM: Ovis aries, Adipocyte, 2 h
# Protocol: (§1) Fat was collected from freshly killed animals as follows: epididymal and perirenal fat from 150 to 200 g male rates; perirenal fat from 20 to 25 kg whether lambs, and perirenal and omental fat from 35 to 50 kg gilts. Immediately after collection, fat was placed in a siliconized beaker (all glassware was siliconized) containing Krebs-Ringer bicarbonate solution (KRB; pH 7.4) at 37° C. Fat was transferred to a clean beaker and finely chopped with scissors. Chopped fat was then used as such (whole adipose preparation) or treated with collagenase (isolated adipocytes).
# (§2) Chopped fat was placed in a shaker containing 70 ml cell dispersion medium (CDM; 5 mM glucose, 0.1% collagenase, 4% bovine serum albumin (BSA), in KRB) and incubated at 37° C. for 1 hour with gentle shaking. Fat was then filtered to remove clumps and washed 4 times with washing medium (WM; 2.5 mM glucose, 1% BSA, in KRB) and 1 time with final suspension medium (FSM; 2.5 mM glucose, 2% essentially fatty acid free BSA, in KRB). Isolated adipocytes were then resuspended in the required amount of FSM (1 ml/flask, 3 flasks/treatment).
# (§3) Whole adipose tissue from the rat (0.3 ml) or isolated adipocytes from sheep or swine (1 ml) were placed in plastic scintillation vials containing FSM (1.7 or 1 ml, respectively) and test compounds, and incubated at 37° C. for 2 hours. […] Isoproterenol, at the same concentrations, was used as a positive control. After incubation, media was removed and assayed for glycerol by a fluorometric modification of the method of Wieland (1974. Glycerol UV-method. pp. 1404. In: Bergmeyer (Ed.) Methods of Enzymatic Analysis. Verlag Chemie Weinham, Academic Press, New York).
# [3] = Growth promoting activity / feed utilization in livestock (general statements); format: in vivo
# Rat Adipose Tissue = test: Stimulation of lipolysis (glycerol production) in chopped rat adipose tissue; format: cell-based; conditions: Rattus norvegicus, 2 h
# Protocol: as §1
# as §3, with “York). […]” for “York).”
# [4] = Toxicity (general statement)
# [5] = In vivo testing in rats: growth, feed conversion and carcass composition; parameters: species or system rat (male Charles River CD); conditions: in diet, dose equivalent to 20 ppm clenbuterol (clenbuterol: 10)
# Excerpt: Eighty intact, male Charles River CD rats, 75-90 g, were housed and maintained on rat chow and water ad libitum. After four days acclimation ten rats per group were randomized by weight to treatment and pen. Compounds to be tested were premixed and added to ground rat chow using doses equivalent to 20 ppm of clenbuterol on a molecular weight basis. It had previously been determined 10 ppm of clenbuterol was the minimum dose needed to give maximum improvements in gain and feed conversion. Therefore, the results of any compound tested should cause responses similar to clenbuterol if the compound has half or more the activity of clenbuterol.
# [6] = tested on: Isolated Chicken Hepatocytes; test: Inhibition of lipogenesis (14C acetate incorporation) in isolated chicken hepatocytes; format: cell-based; conditions: for inhibition at 0.01 µM / inhibition at 0.05 µM / inhibition at 0.25 µM: Gallus gallus, Hepatocyte, 2 h, Test 1, read-out: percent change compared to control, 14C acetate incorporation in fatty acids; for antilipogenic activity relative to clenbuterol / antilipogenic activity relative to isoproterenol: chicken hepatocytes
# Protocol: Determination of anti-lipogenic activity in hepatocytes
# Hepatocytes were isolated from chicken liver using the procedure for adipocytes and incubated for 2 hours at 37° C. in the presence of ^14 C acetate and test compounds. […] Isoproterenol, at the same concentrations, was used as a positive control. After incubation, 8 ml Doles reagent (isopropanol:hexane:H2 SO4, 40:10:1) was added and incubation vials were shaken at room temperature for 30 minutes. Vial contents were poured into 50 ml screw-cap tubes. Vials were then rinsed with 6 ml hexane which was poured into the appropriate 50 ml tube. Tubes were shaken by hand, 10 ml H2 O was added, and tubes were shaken again. After phase separation, 2 ml of the upper (hexane) phase was removed to scintillation vials. Hexane was evaporated by a gentle air flow and the remaining lipids were resuspended in 10 ml Scinti Verse II. ^14 C was counted in a Packard liquid scintillation counter. Data are reported as CPM of ^14 C acetate incorporated into total lipids.
# [7] = tested on: Isolated Swine Adipocytes; test: Stimulation of lipolysis (glycerol production) in isolated swine adipocytes; format: cell-based; conditions: Sus scrofa, Adipocyte, 2 h
# Protocol: as §1, §2, §3
# [8] = Test 1, read-out: percent increase compared to control, glycerol production
# [9] = read-out: percent increase compared to control, glycerol production, Test 1
# [10] = read-out: percent increase compared to control, glycerol production, Test 2
# [11] = Test 1, 0.01 μM, read-out: percent increase compared to control, glycerol production
Compound,"activation at 0.05 µM [2, 8] [%]",activity in all species under consideration [3],activation at 0.01 µM (Rat Adipose Tissue; [8]) [%],activation at 0.05 µM (Rat Adipose Tissue; [8]) [%],activation at 0.25 µM (Rat Adipose Tissue; [8]) [%],"Gain ([5]; Test 1, control 7.3) [g/day]","Feed Intake ([5]; Test 1, control 18.6) [g/day]","Weight ([5]; Test 1, control 191.8) [g]","Carcass Composition % of Change over Control, Fat ([5]; Test 1) [%]","Carcass Composition % of Change over Control, Protein ([5]; Test 1) [%]",inhibition at 0.01 µM [6] [%],inhibition at 0.05 µM [6] [%],inhibition at 0.25 µM [6] [%],"activation at 0.01 µM [7, 8] [%]","activation at 0.05 µM [7, 8] [%]","activation at 0.25 µM [7, 8] [%]","activation at 0.01 µM [2, 11] [%]",antilipogenic activity relative to clenbuterol [6],antilipogenic activity relative to isoproterenol [6],other results
"Cc1ccc(C(=O)Oc2ccc(C(O)CNC(C)(C)C)cc2OC(=O)c2ccc(C)cc2)cc1 (stereo not shown) [Compound V, Bitolterol]",435,high activity in all species under consideration,17,33,111,7.3,18.7,192.2,-4.3,3.1,0,34,64.6,7,47,147,,,,"carcass fat (in words) ([1]; 0.5, 1.0 and 2.0 ppm in diet): did not reduce carcass fat; rate of gain, feed conversion and carcass protein, dose response ([1]; 0.5, 1.0 and 2.0 ppm in diet): improved rate of gain, feed conversion and carcass protein in a dose-related manner; improvement of rate of gain ([1]; 2.0 ppm in diet (highest dose), P 0.01): 2.6%; improvement of feed conversion ([1]; 2.0 ppm in diet (highest dose), P 0.05): 3.8%; improvement of carcass protein ([1]; 2.0 ppm in diet (highest dose), P 0.10): 4.9%; responses compared with clenbuterol at 0.5 ppm ([1]; 2.0 ppm in diet): better than those observed with clenbuterol at 0.5 ppm; percent increase compared to control, glycerol production ([2]; Test 1, 0.01 μM): inactive; level of activity ([3]; in vivo): high level of activity; level of toxicity [4]: very low level of toxicity"
"COc1ccc(CC(C)NCC(O)c2ccc(O)c(NC=O)c2)cc1 (stereo not shown) [IX, Formoterol]",,high activity in all species under consideration,,,,7.9,19.1,199.4,-10.4,10.6,,,,,,,,,,"activation at 0.01 µM ([2]; read-out: percent increase compared to control, glycerol production, Test 1, 0.01 μM): 675%; activation at 0.05 µM [2, 9]: 695%; activation at 0.01 µM (Rat Adipose Tissue; [9]): 42%; activation at 0.05 µM (Rat Adipose Tissue; [9]): 91%; activation at 0.25 µM (Rat Adipose Tissue; [9]): 258%; activation at 0.01 µM (Rat Adipose Tissue; [10]): 16%; activation at 0.05 µM (Rat Adipose Tissue; [10]): 70%; activation at 0.25 µM (Rat Adipose Tissue; [10]): 145%; activation at 0.01 µM [7, 9]: 207%; activation at 0.05 µM [7, 9]: 267%; activation at 0.25 µM [7, 9]: 187%; activation at 0.01 µM [7, 10]: 340%; activation at 0.05 µM [7, 10]: 600%; activation at 0.25 µM [7, 10]: 844%"
"CC(C)(Cc1ccccc1)NCC(O)c1ccc(O)c(NS(C)(=O)=O)c1 (stereo not shown) [I, Zinterol]",960,high activity in all species under consideration,90,129,281,7.8,19.2,199.1,-10.4,7.3,45.2,61.3,66,87,100,53,730,greater than 125 times,five times,
CC(CCc1ccccc1)NCC(O)c1ccc(N)nc1 (stereo not shown) [IV],,high activity in all species under consideration,114,219,334,,,,,,33.7,54.3,63.2,260,333,80,820,greater than 125 times,five times,"Gain ([5]; Test 2, control 7.5): 8.4 g/day; Feed Intake ([5]; Test 2, control 19.3): 20.7 g/day; Weight ([5]; Test 2, control 202.3): 214.7 g; Carcass Composition % of Change over Control, Fat ([5]; Test 2): -16.1%; Carcass Composition % of Change over Control, Protein ([5]; Test 2): 5.0%"
